Where two headings read alike, the source gives them in different places.
Legend:
PANC-1 tumour cells [1] = test system: PANC-1 tumour cells
M579 cells = test: real-time live-cell microscopy of TIL209-mediated lysis of shRNA-transduced tumour cells; format: cell-based, human; conditions: co-culture with HLA-A2.1+-matched TIL209, compared to shCtrl
Source text: FIG. 15: Real-time live cell microscopy showing mean+/−SEM of TIL209-mediated lysis of M579 cells transduced with shCtrl or shSIK3 lentiviral constructs. The graph indicates the area of YOYO-1+ cells/well (um2/well).
SIK3 was stably knocked down in the primary line using SIK3-specific shRNA (shSIK3) or the control non-targeting shRNA sequence (shCtrl). The shRNA sequences targeting SIK3 are set forth in Table A2, and the transduced cell lines were produced briefly as follows: lentiviral transduction particles expressing an shRNA targeting SIK3 mRNA or control shRNA (Sigma-Aldrich) were used for transduction. 5×10^4 […] cells were seeded in a 6 well plate in DMEM 10% FCS 1% P/S. After 24 h, lentiviral particles were added using multiplicity of infection (MOI)=2. 48 h from transduction, cells were put under positive selection using 0.4 μg/ml puromycin. First, the shSIK3 or shCtrl transduced tumour cells were co-cultured with HLA-A2.1+−matched TIL209, and the extent of T cell-mediated killing was monitored using in vitro real-time live-cell microscopy. […] Second, the shSIK3 and shCtrl transduced tumour cells were subcutaneously injected into the left and the right flank, respectively, of NSG immune deficient mice (FIG. 16A), and adoptive cell transfer of TIL209 or PBS injection was applied i.v. once per week (FIG. 16B Scheme).

M579 tumours = test: in vivo adoptive T cell transfer model, shCtrl or shSIK3-transduced M579 tumours in NSG mice; design: species or system mouse
Source text: FIG. 16: (A) Schematic representation of the in vivo mouse experiment. Subcutaneous (s.c.) implantation of shCtrl or shSIK3-transduced M579 cells was applied to the left and the right flank of immunodeficient (NOD scid gamma; NSG) mice, respectively. (B) Mice received intravenous (i.v.) injection of TIL209 (n=9) or PBS alone (n=7) at day 3, 10, 17 and 24. (C) Tumour growth curves showing mean+/−SEM of tumour volume (mm3) of shCtrl or shSIK3-engrafted M579 tumours in mice treated with either TIL209 or PBS. Statistical difference was calculated using unpaired one-side Mann-Whitney U-test. (D) Binding of TNF to TNFR1 (TNFR-I) on tumour cells results in downstream signalling cascade that involve caspase 8 cleavage, NF-kappaB nuclear translocation and SIK3 phosphorylation. NF-kappaB nuclear retention is sustained by its acetylation, and HDAC4 deacetylase acts as negative regulator of NF-kappaB. TNF stimulation increases the levels of pLKB1 which in turn results in increased SIK3 activation. […]
SIK3 was stably knocked down in the primary line using SIK3-specific shRNA (shSIK3) or the control non-targeting shRNA sequence (shCtrl). […] First, the shSIK3 or shCtrl transduced tumour cells were co-cultured with HLA-A2.1+−matched TIL209, and the extent of T cell-mediated killing was monitored using in vitro real-time live-cell microscopy. […]

SIK2 = SIK2 (Homo sapiens (Human), UniProt Q9H0K1); test: radiometric protein kinase assay (33PanQinase Activity Assay, ProQinase Free Choice Kinase Assay); format: biochemical; conditions: ATP 1.0 uM, read-out: SIK2 IC50 rank
SIK1 = SIK1 (Homo sapiens (Human), UniProt P57059); test: as above; format: biochemical; conditions: ATP 3.0 uM, read-out: SIK1 IC50 rank
M579-A2-luc tumour cells = test: luciferase-based tumour cell viability assay, M579-A2-luc cells with inhibitor and TNF; conditions: for tumour cell survival (RLU): in combination with 10 ng/mL TNF, about 20 to 100 nM, FIG. 18
SIK3 = SIK3 (Homo sapiens (Human), UniProt Q9Y2K2); test: radiometric protein kinase assay (33PanQinase Activity Assay, ProQinase Free Choice Kinase Assay); format: biochemical; conditions: read-out: SIK3 IC50 rank
SRC (GST-HIS-tag) = SRC (GST-HIS-tag) (Homo sapiens (Human), UniProt P12931); test: as above; format: biochemical; conditions: indicative IC50, Table 4; ATP 0.3 uM; read-out: SRC IC50 rank
ABL1 wt = ABL1 wt (Homo sapiens (Human), UniProt P00519); test: as above; format: biochemical; conditions: indicative IC50, Table 4; ATP 0.3 uM; read-out: ABL1 IC50 rank
PANC-1 tumour cells [2] = test: Luc-CTL assay: PANC-1 cells co-cultured with TIL #1 in the presence of small molecule SIK inhibitor; conditions: FIGS. 7A and 7B
[3] = indicative IC50, Table 2A, ATP 1.0 uM

SIK1, sequence (P57059 whole entry): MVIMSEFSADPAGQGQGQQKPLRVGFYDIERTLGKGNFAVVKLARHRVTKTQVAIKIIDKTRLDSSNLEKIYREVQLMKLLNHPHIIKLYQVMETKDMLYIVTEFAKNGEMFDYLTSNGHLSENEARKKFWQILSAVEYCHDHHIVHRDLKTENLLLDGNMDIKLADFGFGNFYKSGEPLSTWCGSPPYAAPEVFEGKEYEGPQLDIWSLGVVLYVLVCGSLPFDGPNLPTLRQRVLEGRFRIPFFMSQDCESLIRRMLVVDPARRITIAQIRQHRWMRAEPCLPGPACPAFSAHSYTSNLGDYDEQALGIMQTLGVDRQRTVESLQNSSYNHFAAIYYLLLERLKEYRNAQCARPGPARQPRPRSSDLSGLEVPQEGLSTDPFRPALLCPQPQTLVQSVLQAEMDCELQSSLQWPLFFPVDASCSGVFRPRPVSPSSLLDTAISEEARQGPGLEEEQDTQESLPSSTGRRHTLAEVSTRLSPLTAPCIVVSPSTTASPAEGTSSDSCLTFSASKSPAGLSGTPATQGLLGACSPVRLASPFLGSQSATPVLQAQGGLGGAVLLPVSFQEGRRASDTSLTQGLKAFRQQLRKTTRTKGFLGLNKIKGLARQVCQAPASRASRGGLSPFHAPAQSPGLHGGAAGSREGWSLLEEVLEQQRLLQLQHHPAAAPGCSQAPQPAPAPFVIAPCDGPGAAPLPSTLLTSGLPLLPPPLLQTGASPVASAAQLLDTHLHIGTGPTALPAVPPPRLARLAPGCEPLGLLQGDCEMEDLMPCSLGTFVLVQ
SIK2, sequence (Q9H0K1 whole entry): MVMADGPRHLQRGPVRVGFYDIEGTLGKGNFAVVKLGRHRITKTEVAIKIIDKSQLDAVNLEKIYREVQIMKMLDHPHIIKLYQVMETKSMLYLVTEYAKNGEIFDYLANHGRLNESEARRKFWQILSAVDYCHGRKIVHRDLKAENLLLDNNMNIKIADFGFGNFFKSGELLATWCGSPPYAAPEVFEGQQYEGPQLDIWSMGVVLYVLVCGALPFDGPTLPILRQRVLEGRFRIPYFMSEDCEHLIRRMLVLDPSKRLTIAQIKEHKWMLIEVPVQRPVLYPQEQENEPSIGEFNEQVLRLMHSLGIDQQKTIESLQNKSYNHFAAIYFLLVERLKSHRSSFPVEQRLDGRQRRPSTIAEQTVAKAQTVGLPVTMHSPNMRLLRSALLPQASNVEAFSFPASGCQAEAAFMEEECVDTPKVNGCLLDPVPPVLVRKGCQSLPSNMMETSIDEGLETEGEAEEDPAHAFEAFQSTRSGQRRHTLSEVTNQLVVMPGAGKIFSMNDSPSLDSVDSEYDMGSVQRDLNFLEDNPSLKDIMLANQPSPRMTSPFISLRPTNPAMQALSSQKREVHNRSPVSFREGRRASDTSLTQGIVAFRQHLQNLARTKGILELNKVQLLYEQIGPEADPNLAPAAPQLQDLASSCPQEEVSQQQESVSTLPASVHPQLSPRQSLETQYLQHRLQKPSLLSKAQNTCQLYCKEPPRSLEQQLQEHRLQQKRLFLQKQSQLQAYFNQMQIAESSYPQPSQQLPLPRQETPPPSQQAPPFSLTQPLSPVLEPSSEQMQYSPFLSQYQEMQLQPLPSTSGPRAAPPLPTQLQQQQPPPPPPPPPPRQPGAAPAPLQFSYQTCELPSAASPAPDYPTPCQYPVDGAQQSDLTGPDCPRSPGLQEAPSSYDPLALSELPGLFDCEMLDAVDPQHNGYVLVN
SIK3, sequence (Q9Y2K2 whole entry): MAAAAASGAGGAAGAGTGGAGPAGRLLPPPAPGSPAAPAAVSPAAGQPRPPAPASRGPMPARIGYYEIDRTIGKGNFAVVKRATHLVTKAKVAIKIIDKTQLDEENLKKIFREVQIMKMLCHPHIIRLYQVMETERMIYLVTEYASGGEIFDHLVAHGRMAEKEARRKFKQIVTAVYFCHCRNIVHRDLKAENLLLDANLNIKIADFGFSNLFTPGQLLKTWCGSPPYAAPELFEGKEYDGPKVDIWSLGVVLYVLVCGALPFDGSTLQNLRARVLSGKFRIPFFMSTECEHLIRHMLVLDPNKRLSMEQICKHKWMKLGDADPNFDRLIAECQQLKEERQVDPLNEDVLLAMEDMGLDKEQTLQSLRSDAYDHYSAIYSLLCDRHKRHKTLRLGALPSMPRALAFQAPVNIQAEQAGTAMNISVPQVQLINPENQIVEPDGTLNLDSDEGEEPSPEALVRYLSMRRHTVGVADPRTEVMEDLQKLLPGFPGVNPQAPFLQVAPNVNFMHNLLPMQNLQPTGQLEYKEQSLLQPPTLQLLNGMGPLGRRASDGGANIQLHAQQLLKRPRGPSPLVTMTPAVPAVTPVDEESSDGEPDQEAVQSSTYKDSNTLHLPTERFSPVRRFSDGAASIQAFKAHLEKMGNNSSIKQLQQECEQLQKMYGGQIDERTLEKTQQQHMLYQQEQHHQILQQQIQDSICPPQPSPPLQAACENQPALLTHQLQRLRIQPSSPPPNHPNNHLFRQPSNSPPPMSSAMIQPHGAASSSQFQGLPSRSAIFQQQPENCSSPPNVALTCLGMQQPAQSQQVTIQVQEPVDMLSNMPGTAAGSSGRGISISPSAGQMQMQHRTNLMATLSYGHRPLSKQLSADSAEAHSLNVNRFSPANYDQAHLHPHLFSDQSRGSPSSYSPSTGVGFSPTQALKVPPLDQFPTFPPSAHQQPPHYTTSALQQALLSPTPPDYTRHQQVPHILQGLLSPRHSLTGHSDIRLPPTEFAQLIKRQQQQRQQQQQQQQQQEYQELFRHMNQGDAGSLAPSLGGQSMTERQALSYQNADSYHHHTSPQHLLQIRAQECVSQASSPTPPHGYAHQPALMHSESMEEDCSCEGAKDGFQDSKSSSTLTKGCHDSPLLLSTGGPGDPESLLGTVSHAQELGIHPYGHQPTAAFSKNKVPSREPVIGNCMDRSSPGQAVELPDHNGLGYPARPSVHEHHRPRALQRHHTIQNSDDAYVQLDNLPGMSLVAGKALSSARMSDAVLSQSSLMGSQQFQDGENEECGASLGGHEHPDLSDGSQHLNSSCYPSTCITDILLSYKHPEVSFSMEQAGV
ABL1 wt, sequence (P00519 whole entry): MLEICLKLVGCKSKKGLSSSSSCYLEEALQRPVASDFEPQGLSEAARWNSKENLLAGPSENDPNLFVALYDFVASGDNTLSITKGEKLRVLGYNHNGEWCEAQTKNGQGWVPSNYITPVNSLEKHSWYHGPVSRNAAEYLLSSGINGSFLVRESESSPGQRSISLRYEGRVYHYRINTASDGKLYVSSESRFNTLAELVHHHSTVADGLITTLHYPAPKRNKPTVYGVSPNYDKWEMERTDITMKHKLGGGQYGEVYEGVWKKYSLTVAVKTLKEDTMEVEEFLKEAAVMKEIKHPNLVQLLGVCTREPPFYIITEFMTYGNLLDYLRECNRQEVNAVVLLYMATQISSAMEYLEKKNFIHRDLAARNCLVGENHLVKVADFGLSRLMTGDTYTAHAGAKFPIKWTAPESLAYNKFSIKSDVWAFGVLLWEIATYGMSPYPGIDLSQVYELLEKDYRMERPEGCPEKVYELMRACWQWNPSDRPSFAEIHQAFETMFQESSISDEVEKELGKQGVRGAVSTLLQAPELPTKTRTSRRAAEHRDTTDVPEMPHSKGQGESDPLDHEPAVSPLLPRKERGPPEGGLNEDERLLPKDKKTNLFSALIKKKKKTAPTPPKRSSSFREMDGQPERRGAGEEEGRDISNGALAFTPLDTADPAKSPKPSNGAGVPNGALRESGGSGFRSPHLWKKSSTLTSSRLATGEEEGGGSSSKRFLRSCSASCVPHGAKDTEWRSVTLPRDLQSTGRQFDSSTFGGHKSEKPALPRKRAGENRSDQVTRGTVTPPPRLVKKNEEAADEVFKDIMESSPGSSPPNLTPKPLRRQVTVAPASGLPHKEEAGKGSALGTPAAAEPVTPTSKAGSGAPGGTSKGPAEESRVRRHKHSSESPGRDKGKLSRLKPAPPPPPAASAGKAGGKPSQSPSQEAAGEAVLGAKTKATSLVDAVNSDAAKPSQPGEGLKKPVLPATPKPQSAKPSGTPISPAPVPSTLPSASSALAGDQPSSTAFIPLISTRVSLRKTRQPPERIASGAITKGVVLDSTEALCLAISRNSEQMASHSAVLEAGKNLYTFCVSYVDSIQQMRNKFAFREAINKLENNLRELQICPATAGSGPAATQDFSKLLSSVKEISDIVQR
SRC (GST-HIS-tag), sequence (P12931 whole entry, looked up): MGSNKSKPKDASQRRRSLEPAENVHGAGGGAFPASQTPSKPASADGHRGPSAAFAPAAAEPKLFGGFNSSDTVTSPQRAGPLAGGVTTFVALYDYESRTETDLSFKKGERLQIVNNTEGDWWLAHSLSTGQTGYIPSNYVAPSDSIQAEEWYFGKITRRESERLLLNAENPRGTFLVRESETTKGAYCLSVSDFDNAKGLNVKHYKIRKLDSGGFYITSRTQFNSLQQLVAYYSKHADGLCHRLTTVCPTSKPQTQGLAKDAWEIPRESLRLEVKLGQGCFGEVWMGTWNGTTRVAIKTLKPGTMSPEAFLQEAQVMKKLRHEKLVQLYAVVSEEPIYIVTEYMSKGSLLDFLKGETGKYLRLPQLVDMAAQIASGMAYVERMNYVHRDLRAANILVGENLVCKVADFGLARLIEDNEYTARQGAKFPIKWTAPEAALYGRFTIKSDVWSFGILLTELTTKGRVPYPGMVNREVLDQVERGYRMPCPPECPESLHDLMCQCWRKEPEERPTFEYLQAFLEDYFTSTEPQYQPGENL

HG-9-91-01
sensitivity to TILs and/or TNF-mediated tumour lysis (cytotoxicity to viability ratio in Luc-CTL assay) (PANC-1 tumour cells [1]): remarkable increase in sensitivity to TILs and/or TNF-mediated tumour lysis

shSIK3: SIK3-specific shRNA, Sigma TRCN0000037452, delivered by lentiviral transduction particles (DNA CCGGGCCAGGCTTTATCTTATCAAACTCGAGTTTGATAAGATAAAGCCTGGCTTTTTG)
T cell-mediated killing (M579 cells): increased killing efficacy | tumour growth kinetic (M579 tumours; PBS-treated, shCtrl versus shSIK3): no difference in the tumour growth kinetic | tumour growth (M579 tumours; s.c. tumours, TIL209 i.v. once per week, compared to shCtrl): retardation of tumour growth

Cc1nc(Nc2ncc(C(=O)Nc3ccccc3S(=O)(=O)C(C)C)s2)cc(N2CCN(CCO)CC2)n1 [Compound A6, 2-((6-(4-(2-hydroxyethyl)piperazin-1-yl)-2-methylpyrimidin-4-yl)amino)-N-(2-(propane-2-sulfonyl)phenyl)thiazole-5-carboxamide]
IC50 (SIK2; indicative IC50, Table 2A): > 100 nM | IC50 (SIK1; indicative IC50, Table 2A): > 1000 nM | tumour cell survival (RLU) (M579-A2-luc tumour cells): remains unaffected | IC50 (SIK3; [3]): > 1000 nM

Cc1nc(Nc2ncc(C(=O)Nc3ccccc3)s2)cc(N2CCN(CCO)CC2)n1 [Compound A11, ((6-(4-(2-hydroxyethyl)piperazin-1-yl)-2-methylpyrimidin-4-yl)amino)-N-phenylthiazole-5-carboxamide]
IC50 (SIK2; indicative IC50, Table 2A): > 100 nM | IC50 (SIK1; indicative IC50, Table 2A): > 100 nM | tumour cell survival (RLU) (M579-A2-luc tumour cells): remains unaffected | IC50 (SIK3; [3]): > 1000 nM

CCOc1cccc(Cl)c1NC(=O)c1cnc(Nc2cc(N3CCN(CCO)CC3)nc(C)n2)s1 [Compound B8, N-(2-chloro-6-ethoxyphenyl)-2-((6-(4-(2-hydroxyethyl)piperazin-1-yl)-2-methylpyrimidin-4-yl)amino)thiazole-5-carboxamide]
IC50 (SRC (GST-HIS-tag)): < 100 nM | IC50 (ABL1 wt): < 100 nM | IC50 (SIK2; indicative IC50, Table 4): > 1000 nM | IC50 (SIK1; indicative IC50, Table 4): > 1000 nM | cytotoxicity of M579 A2 cells in combination with TNF compared to inhibitor alone (M579-A2-luc tumour cells; TNF 10 ng/mL, inhibitor between about 10 and 100 nM, FIG. 17): fails to exhibit cytotoxicity | IC50 (SIK3): > 5000 nM

COc1cc(Nc2c(C#N)cnc3cc(OCCCN4CCN(C)CC4)c(OC)cc23)c(Cl)cc1Cl [bosutinib, 3-Quinolinecarbonitrile, 4-[(2,4-dichloro-5-methoxyphenyl)amino]-6-methoxy-7-[3-(4-methyl-1-piperazinyl)propoxy]-, hydrate (1:1)]
sensitivity to TILs and/or TNF-mediated tumour lysis (cytotoxicity to viability ratio in Luc-CTL assay) (PANC-1 tumour cells [2]): remarkable increase in sensitivity to TILs and/or TNF-mediated tumour lysis

Source: patent US20250340886A1, “INTRACELLULAR KINASE ASSOCIATED WITH RESISTANCE AGAINST ANTI-TUMOUR IMMUNE RESPONSES, AND USES THEREOF” (iOmx Therapeutics AG, priority 2017, published 2025)
